For the experiment, the target named is T1, full-length beta-catenin (Axin site) (Homo sapiens, UniProt P35222).
T1 construct: 15 nM full-length beta-catenin, 20 nM FITC labeled peptide in buffer
T1 sequence (P35222 1-781): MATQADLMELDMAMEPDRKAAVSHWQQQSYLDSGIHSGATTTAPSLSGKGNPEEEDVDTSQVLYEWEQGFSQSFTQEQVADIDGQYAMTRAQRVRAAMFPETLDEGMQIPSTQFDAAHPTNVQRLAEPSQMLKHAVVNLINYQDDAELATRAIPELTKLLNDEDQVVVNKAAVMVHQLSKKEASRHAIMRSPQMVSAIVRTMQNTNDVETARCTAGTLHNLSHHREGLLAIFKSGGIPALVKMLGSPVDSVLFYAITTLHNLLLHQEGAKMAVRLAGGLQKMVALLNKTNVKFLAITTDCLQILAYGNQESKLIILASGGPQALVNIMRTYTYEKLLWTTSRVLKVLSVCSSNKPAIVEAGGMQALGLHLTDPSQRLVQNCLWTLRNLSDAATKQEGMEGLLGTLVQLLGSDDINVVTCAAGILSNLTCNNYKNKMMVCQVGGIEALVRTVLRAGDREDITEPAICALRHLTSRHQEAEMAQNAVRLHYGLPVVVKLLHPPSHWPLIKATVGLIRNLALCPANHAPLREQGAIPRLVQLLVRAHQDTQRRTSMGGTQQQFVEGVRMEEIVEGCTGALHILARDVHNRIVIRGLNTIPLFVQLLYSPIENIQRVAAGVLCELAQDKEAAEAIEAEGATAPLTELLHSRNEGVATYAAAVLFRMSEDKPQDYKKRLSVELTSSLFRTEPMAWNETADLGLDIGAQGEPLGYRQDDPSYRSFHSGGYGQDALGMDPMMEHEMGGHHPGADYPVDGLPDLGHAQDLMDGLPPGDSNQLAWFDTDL
Put plainly: Competition fluorescence polarization assay (Axin site probe). It counts as binding. The settings on record: competition with FITC labeled Axin-site probe, 15 nM full-length beta-catenin; read-out: FP EC50. Put shortly:
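Competition FP: 15 nM full-length β-catenin pre-incubated 5 min with 20 nM FITC-labelled stapled Axin-site peptide, then titrated peptide added (3-fold series from 5 μM) for 15 min in the dark. Buffer 50 mM Tris pH 8.0, 250 mM NaCl, 2% glycerol, 0.5 mM EDTA; duplicate reads.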
A general note: In fluorescence polarisation assays a small probe gives low polarisation when free and higher when bound to something large.
For `CC[C@H](C)[C@@H]1NC(=O)[C@@](C)(NC(=O)[C@H](CCC(N)=O)NC(=O)[C@@H]2CCCN2C(C)=O)CCCC=CCN2CC(C(=O)N[C@@H](Cc3c[nH]cn3)C(=O)N[C@H](C(=O)N[C@@H](CCCNC(=N)N)C(=O)N[C@@H](CCCNC(=N)N)C(=O)N[C@H](C(=O)N[C@@H](Cc3c[nH]c4ccccc34)C(=O)N[C@@H](CCCNC(=N)N)C(N)=O)C(C)C)C(C)C)(C2)NC(=O)[C@H](CC(=O)O)NC(=O)[C@H](CC(C)C)NC1=O` (single isomer, unassigned) [FP-0734, Ac-P-Q-S5-I-L-D-Az-H-V-R-R-V-W-R-NH2], the EC50 (commonly the midpoint of the concentration-response curve) is greater than 5000 nM.

`CC[C@H](C)[C@@H]1NC(=O)[C@@](C)(NC(=O)[C@H](CCC(N)=O)NC(=O)[C@@H]2CCCN2C(C)=O)CCCC=CCOC(=O)N2CC(C(=O)N[C@@H](Cc3c[nH]cn3)C(=O)N[C@H](C(=O)N[C@@H](CCCNC(=N)N)C(=O)N[C@@H](CCCNC(=N)N)C(=O)N[C@H](C(=O)N[C@@H](Cc3c[nH]c4ccccc34)C(=O)N[C@@H](CCCNC(=N)N)C(N)=O)C(C)C)C(C)C)(C2)NC(=O)[C@H](CC(=O)O)NC(=O)[C@H](CC(C)C)NC1=O` (single isomer, unassigned) [FP-0734c, Ac-P-Q-S5-I-L-D-Az-H-V-R-R-V-W-R-NH2]: the EC50 is greater than 5000 nM.

As to `CC[C@H](C)[C@@H]1NC(=O)[C@@](C)(NC(=O)[C@H](CCC(N)=O)NC(=O)[C@@H]2CCCN2C(C)=O)CCCCCC=CCN2CC(C(=O)N[C@@H](Cc3c[nH]cn3)C(=O)N[C@H](C(=O)N[C@@H](CCCNC(=N)N)C(=O)N[C@@H](CCCNC(=N)N)C(=O)N[C@H](C(=O)N[C@@H](Cc3c[nH]c4ccccc34)C(=O)N[C@@H](CCCNC(=N)N)C(N)=O)C(C)C)C(C)C)(C2)NC(=O)[C@H](CC(=O)O)NC(=O)[C@H](CC(C)C)NC1=O` (single isomer, unassigned) [FP-0738, Ac-P-Q-S7-I-L-D-Az-H-V-R-R-V-W-R-NH2], the EC50 came to 200 nM. Regarding `CC[C@H](C)[C@@H]1NC(=O)[C@@](C)(NC(=O)[C@H](CCC(N)=O)NC(=O)[C@@H]2CCCN2C(C)=O)CCCCCC=CCOC(=O)N2CC(C(=O)N[C@@H](Cc3c[nH]cn3)C(=O)N[C@H](C(=O)N[C@@H](CCCNC(=N)N)C(=O)N[C@@H](CCCNC(=N)N)C(=O)N[C@H](C(=O)N[C@@H](Cc3c[nH]c4ccccc34)C(=O)N[C@@H](CCCNC(=N)N)C(N)=O)C(C)C)C(C)C)(C2)NC(=O)[C@H](CC(=O)O)NC(=O)[C@H](CC(C)C)NC1=O` (single isomer, unassigned) [FP-0738c, Ac-P-Q-S7-I-L-D-Az-H-V-R-R-V-W-R-NH2], the EC50 amounted to 1800 nM. In the case of `CC[C@H](C)[C@@H]1NC(=O)[C@@]2(NC(=O)[C@H](CCC(N)=O)NC(=O)[C@@H]3CCCN3C(C)=O)CCN(CC=CCCC[C@](C)(C(=O)N[C@@H](Cc3c[nH]cn3)C(=O)N[C@H](C(=O)N[C@@H](CCCNC(=N)N)C(=O)N[C@@H](CCCNC(=N)N)C(=O)N[C@H](C(=O)N[C@@H](Cc3c[nH]c4ccccc34)C(=O)N[C@@H](CCCNC(=N)N)C(N)=O)C(C)C)C(C)C)NC(=O)[C@H](CC(=O)O)NC(=O)[C@H](CC(C)C)NC1=O)C2` (single isomer, unassigned) [FP-0743, Ac-P-Q-PR-I-L-D-R5-H-V-R-R-V-W-R-NH2] it was greater than 5000 nM; in that of `CC[C@H](C)[C@@H]1NC(=O)[C@@]2(NC(=O)[C@H](CCC(N)=O)NC(=O)[C@@H]3CCCN3C(C)=O)CCN(C2)C(=O)OCC=CCCCC[C@](C)(C(=O)N[C@@H](Cc2c[nH]cn2)C(=O)N[C@H](C(=O)N[C@@H](CCCNC(=N)N)C(=O)N[C@@H](CCCNC(=N)N)C(=O)N[C@H](C(=O)N[C@@H](Cc2c[nH]c3ccccc23)C(=O)N[C@@H](CCCNC(=N)N)C(N)=O)C(C)C)C(C)C)NC(=O)[C@H](CC(=O)O)NC(=O)[C@H](CC(C)C)NC1=O` (single isomer, unassigned) [FP-0745c, Ac-P-Q-PR-I-L-D-R6-H-V-R-R-V-W-R-NN2], 110 nM. In the case of `CC[C@H](C)[C@@H]1NC(=O)[C@]2(NC(=O)[C@H](CCC(N)=O)NC(=O)[C@@H]3CCCN3C(C)=O)CCN(CC=CCCC[C@@](C)(C(=O)N[C@@H](Cc3c[nH]cn3)C(=O)N[C@H](C(=O)N[C@@H](CCCNC(=N)N)C(=O)N[C@@H](CCCNC(=N)N)C(=O)N[C@H](C(=O)N[C@@H](Cc3c[nH]c4ccccc34)C(=O)N[C@@H](CCCNC(=N)N)C(N)=O)C(C)C)C(C)C)NC(=O)[C@H](CC(=O)O)NC(=O)[C@H](CC(C)C)NC1=O)C2` (single isomer, unassigned) [FP-0751, Ac-P-Q-PS-I-L-D-S5-H-V-R-R-V-W-R-NH2] it was greater than 5000 nM.

With `CC[C@H](C)[C@@H]1NC(=O)[C@]2(NC(=O)[C@H](CCC(N)=O)NC(=O)[C@@H]3CCCN3C(C)=O)CCN(CC=CCCCCC[C@@](C)(C(=O)N[C@@H](Cc3c[nH]cn3)C(=O)N[C@H](C(=O)N[C@@H](CCCNC(=N)N)C(=O)N[C@@H](CCCNC(=N)N)C(=O)N[C@H](C(=O)N[C@@H](Cc3c[nH]c4ccccc34)C(=O)N[C@@H](CCCNC(=N)N)C(N)=O)C(C)C)C(C)C)NC(=O)[C@H](CC(=O)O)NC(=O)[C@H](CC(C)C)NC1=O)C2` (single isomer, unassigned) [FP-0753, Ac-P-Q-PS-I-L-D-S7-H-V-R-R-V-W-R-NH2], the EC50 was greater than 5000 nM.

For `CC[C@H](C)[C@@H]1NC(=O)[C@](C)(NC(=O)[C@H](CCC(N)=O)NC(=O)[C@@H]2CCCN2C(C)=O)CCCC=CCN2CC[C@@](C(=O)N[C@@H](Cc3c[nH]cn3)C(=O)N[C@H](C(=O)N[C@@H](CCCNC(=N)N)C(=O)N[C@@H](CCCNC(=N)N)C(=O)N[C@H](C(=O)N[C@@H](Cc3c[nH]c4ccccc34)C(=O)N[C@@H](CCCNC(=N)N)C(N)=O)C(C)C)C(C)C)(C2)NC(=O)[C@H](CC(=O)O)NC(=O)[C@H](CC(C)C)NC1=O` (single isomer, unassigned) [FP-0758, Ac-P-Q-R5-I-L-D-PS-H-V-R-R-V-W-R-NH2], the EC50 is greater than 5000 nM. Under `CC[C@H](C)[C@@H]1NC(=O)[C@](C)(NC(=O)[C@H](CCC(N)=O)NC(=O)[C@@H]2CCCN2C(C)=O)CCCCC=CCOC(=O)N2CC[C@](C(=O)N[C@@H](Cc3c[nH]cn3)C(=O)N[C@H](C(=O)N[C@@H](CCCNC(=N)N)C(=O)N[C@@H](CCCNC(=N)N)C(=O)N[C@H](C(=O)N[C@@H](Cc3c[nH]c4ccccc34)C(=O)N[C@@H](CCCNC(=N)N)C(N)=O)C(C)C)C(C)C)(C2)NC(=O)[C@H](CC(=O)O)NC(=O)[C@H](CC(C)C)NC1=O` (single isomer, unassigned) [FP-0767c, Ac-P-Q-R6-I-L-D-PR-H-V-R-R-V-W-R-NH2] stands 110 nM; under `CC[C@H](C)[C@@H]1NC(=O)[C@](C)(NC(=O)[C@H](CCC(N)=O)NC(=O)[C@@H]2CCCN2C(C)=O)CCCCCC=CCN2CC[C@](C(=O)N[C@@H](Cc3c[nH]cn3)C(=O)N[C@H](C(=O)N[C@@H](CCCNC(=N)N)C(=O)N[C@@H](CCCNC(=N)N)C(=O)N[C@H](C(=O)N[C@@H](Cc3c[nH]c4ccccc34)C(=O)N[C@@H](CCCNC(=N)N)C(N)=O)C(C)C)C(C)C)(C2)NC(=O)[C@H](CC(=O)O)NC(=O)[C@H](CC(C)C)NC1=O` (single isomer, unassigned) [FP-0768, Ac-P-Q-R7-I-L-D-PR-H-V-R-R-V-W-R-NH2], greater than 5000 nM.

The values are drawn from patent publication US11198713B2, “Agents modulating beta-catenin functions and methods thereof” (FOG PHARMACEUTICALS, INC., priority 2017, dated 2021).
